Experimental findings from patent publication US20160017399A1, “ELECTROCHEMICAL-BASED ANALYTICAL TEST STRIP WITH ENZYMATIC REAGENT LAYER CONTAINING A NAPHTHOQUINONE-BASED MEDIATOR AND FAD-GDH” (LifeScan Scotland Limited, priority 2014, published 2016) are described below.

Data set [1] in a line: solubility at room temperature. Format: physicochemical. The source says: Compound A is an orange amorphous solid, soluble in base and neutral phosphate buffer at room temperature. Compound A has the following beneficial electrochemical characteristics: • E0=0.086V vs Ag/AgCl (0.1M KCl) • kcat=900 s^−1 where E0 is the formal redox potential vs Ag/AgCl (compare to 0.25V for ferricyanide) and kcat is the rate constant for homogeneous electron transfer between the mediator (i.e., Compound A) and enzyme cofactor FAD. It is noted that E0 for ferricyanide is 0.25V and kcat for ferricyanide is 230 s^−1. Compound A has both an E0 that is beneficially lower than that of ferricyanide (and thus less is less susceptible to interferents) and a kcat that is beneficially higher than that of ferricyanide.
Compound B is an orange amorphous solid, soluble in base and neutral phosphate buffer at room temperature. […] has the following beneficial electrochemical characteristics: • E0=0.016V vs Ag/AgCl (0.1M KCl) • kcat=100 s^−1 where E0 is the formal redox potential vs Ag/AgCl (compare to 0.25V for ferricyanide) and kcat is the rate constant for homogeneous electron transfer between the mediator (i.e., Compound A) and enzyme cofactor FAD. It is noted that E0 for ferricyanide is 0.25V and kcat for ferricyanide is 230 s^−1. […]

Data set [2] in a line: storage stability (glucose sensitivity after storage). It counts as physicochemical. To be noted: storage for 26 days at 40 degrees Celsius.

Read-outs that look alike come from different tables or passages of the source.

On to `O=C1C=C(SCCCS(=O)(=O)O)c2ccccc2C1=O` [Compound A, 1,2-naphthalenedione-4-(3-mercapto-1-propanesulfonic acid)], for which, in data set [1], the solubility result is “soluble”. Besides, the “reduction in glucose sensitivity after storage” value in data set [2] is “no reduction in glucose sensitivity”.

For `O=C(O)CCSC1=CC(=O)C(=O)c2ccccc21` [Compound B, 1,2-naphthalenedione-4-(3-mercaptopropionic acid)], the solubility entry in data set [1] (in base and neutral phosphate buffer at room temperature) is recorded as “soluble”. Besides, the “reduction in glucose sensitivity after storage” value in data set [2] is recorded as “no reduction in glucose sensitivity”.
